Measured values taken from patent US8088731B2, “Use of GLP-1 compound for treatment of critically ill patients” (Novo Nordisk A/S, priority 2002, dated 2012).

Key:
[1] = system: subjects with type 2 diabetes; test: 12 week randomised, double-blind, dose-response, placebo controlled and open label glimepiride study of glucose lowering effect; type: in vivo, human; settings: 12 weeks
Description: The dose of glimepiride was adjusted during the first 4 weeks based on glycaemic control with a treatment target of fasting serum glucose <7 mM, with a dose not exceeding 4 mg/day. Results

[2] = system: subjects with type 2 diabetes; test: Graded glucose infusion crossover study of beta cell sensitivity to glucose after a single dose; type: in vivo, human; settings: single dose 7.5 μg/kg
Description: Using a graded glucose infusion protocol with plasma glucose levels matched over the range of 5 to 12 mmol/L beta cell sensitivity was assessed. Insulin secretion rates (ISR) were estimated by deconvolution of circulating C-peptide concentrations. Findings were compared to responses of 10 healthy, nondiabetic volunteers to the same glucose infusion protocol.

SMILES	subjects that reported any hypoglycaemic episode ([1]; glimepiride group) [%]	reduction compared to placebo on FSG ([1]; glimepiride p.o. once daily, open-label, titrated, not exceeding 4 mg/day) [mM]	reduction compared to placebo on HbA1c ([1]; glimepiride p.o. once daily, open-label, titrated, not exceeding 4 mg/day, p=0.0001) [%]	C-peptide levels compared to placebo ([2]; type 2 diabetes subjects)	hypoglycemic events ([2]; type 2 diabetes subjects)	insulin levels compared to placebo ([2]; type 2 diabetes subjects)	slope of ISR vs. plasma glucose ([2]; type 2 diabetes subjects, graded glucose infusion, p<0.014 vs placebo)	insulin secretion at low glucose levels ([2]; versus non-diabetic controls)	mean serum fasting glucose decrease compared with placebo ([1]; 0.60 mg once daily s.c., p<0.0001) [mmol/L]	mean decrease compared to placebo in HbA1c ([1]; 0.60 mg once daily s.c., p=0.0002) [percentage points]	mean decrease compared to placebo in HbA1c ([1]; 0.75 mg once daily s.c., p<0.0001) [percentage points]	mean serum fasting glucose decrease compared with placebo ([1]; 0.75 mg once daily s.c., p=0.0003) [mmol/L]	subjects that reported any hypoglycaemic episode ([1]; two highest dose groups (0.60 and 0.75 mg)) [%]
CCC1=C(C)CN(C(=O)NCCc2ccc(S(=O)(=O)NC(=O)N[C@H]3CC[C@H](C)CC3)cc2)C1=O [glimepiride, reference compound]	31	-2.6	0.74										
CCCCCCCCCCCCCCCC(=O)N[C@@H](CCC(=O)NCCCC[C@H](NC(=O)[C@H](C)NC(=O)[C@H](C)NC(=O)[C@H](CCC(N)=O)NC(=O)CNC(=O)[C@H](CCC(=O)O)NC(=O)[C@H](CC(C)C)NC(=O)[C@H](Cc1ccc(O)cc1)NC(=O)[C@H](CO)NC(=O)[C@H](CO)NC(=O)[C@@H](NC(=O)[C@H](CC(=O)O)NC(=O)[C@H](CO)NC(=O)[C@@H](NC(=O)[C@H](Cc1ccccc1)NC(=O)[C@@H](NC(=O)CNC(=O)[C@H](CCC(=O)O)NC(=O)[C@H](C)NC(=O)[C@@H](N)Cc1cnc[nH]1)[C@@H](C)O)[C@@H](C)O)C(C)C)C(=O)N[C@@H](CCC(=O)O)C(=O)N[C@@H](Cc1ccccc1)C(=O)N[C@H](C(=O)N[C@@H](C)C(=O)N[C@@H](Cc1c[nH]c2ccccc12)C(=O)N[C@@H](CC(C)C)C(=O)N[C@H](C(=O)N[C@@H](CCCNC(=N)N)C(=O)NCC(=O)N[C@@H](CCCNC(=N)N)C(=O)NCC(=O)O)C(C)C)[C@@H](C)CC)C(=O)O [NN2211, Arg^34, Lys^26(N^ε-(γ-Glu(N^α-hexadecanoyl)))-GLP-1(7-37)]				increased	No hypoglycemic events occurred	increased	1.26±0.36 pmol*L/(min*mmol*kg)	comparable to the non-diabetic controls	2.14	0.70	0.75	1.82	7
